We go through nine molecules from publication PMC10945556, “Design, Synthesis, and Antifungal Activity of 3-Substituted-2(5H)-Oxaboroles” (ACS Medicinal Chemistry Letters, 2024).

In brackets after ≈: the same amount, converted by molar mass.

One experiment deals with T. mentagrophytes. Put plainly: MIC, dose-dependent solid media assay. The experiment is classed as cell-based, Trichophyton mentagrophytes.
Another experiment deals with P. chrysogenum. Put plainly: MIC, dose-dependent solid media assay. The experiment is classed as cell-based, Penicillium chrysogenum.
The test system of another experiment is A. flavus. Put plainly: MIC, dose-dependent solid media assay. It counts as cell-based, Aspergillus flavus.
A further experiment concerns C. albicans. Put plainly: MIC, microbroth dilution. It counts as cell-based, Candida albicans.
A further experiment has as its system S. cerevisiae. Briefly: MIC, microbroth dilution. The experiment is classed as cell-based, Saccharomyces cerevisiae.
A further experiment deals with B. cereus. Put plainly: MIC, microbroth dilution. It counts as cell-based, Bacillus cereus.
Experiment [1] concerns Methicillin resistant Staphylococcus aureus. Put plainly: MIC, microbroth dilution. The experiment is classed as cell-based. The conditions noted are these: S. aureus (MRSA).
The test system of the next experiment is P. aeruginosa. Put plainly: MIC, microbroth dilution. The experiment is classed as cell-based, Pseudomonas aeruginosa.
Another experiment concerns E. coli. Put plainly: MIC, microbroth dilution. It counts as cell-based, Escherichia coli.
Setting [2] is: Trichophyton mentagrophytes, value in parentheses.
[3] abbreviates: Penicillium chrysogenum, value in parentheses.
Where [4] appears, read: Aspergillus flavus, value in parentheses.
Setting [5] is: Candida albicans, value in parentheses.
The mark [6] stands for this setting: Saccharomyces cerevisiae, value in parentheses.
Setting [7] is: Bacillus cereus, value in parentheses.
The mark [8] stands for this setting: Staphylococcus aureus, value in parentheses.
Where [9] appears, read: Pseudomonas aeruginosa, value in parentheses.
[10] abbreviates: Escherichia coli, value in parentheses.

As for `OB1OCC=C1c1ccccc1F` [Compound 6d], the MIC in the experiment with T. mentagrophytes (Trichophyton mentagrophytes) was over 50 µg/mL; with T. mentagrophytes (setting [2]) it was over 281 µM; in the experiment on P. chrysogenum (Penicillium chrysogenum) it was 25 µg/mL; with P. chrysogenum (setting [3]), 140 µM; in the experiment on A. flavus (Aspergillus flavus), over 50 µg/mL; in the experiment with A. flavus (setting [4]), over 281 µM. Also, the MIC with C. albicans (Candida albicans) is over 50 µg/mL; in the experiment with C. albicans (setting [5]), over 281 µM; in the experiment on S. cerevisiae (Saccharomyces cerevisiae), 21 ± 4 µg/mL; in the experiment on S. cerevisiae (setting [6]) it was 118 µM; with B. cereus (Bacillus cereus), over 50 µg/mL; in the experiment on B. cereus (setting [7]), over 281 µM. Besides, the minimal inhibitory concentration (MIC) was over 50 µg/mL in experiment [1] (Staphylococcus aureus); over 281 µM in experiment [1] (setting [8]); over 50 µg/mL in the experiment on P. aeruginosa (Pseudomonas aeruginosa); over 281 µM in the experiment on P. aeruginosa (setting [9]); over 50 µg/mL against E. coli (Escherichia coli); over 281 µM with E. coli (setting [10]).
Regarding `OB1OCC=C1c1cccc(I)c1` [Compound 6l], the MIC was 25 µg/mL in the experiment on T. mentagrophytes (Trichophyton mentagrophytes); 87.4 µM in the experiment on T. mentagrophytes (setting [2]); 6.25 µg/mL against P. chrysogenum (Penicillium chrysogenum); 21.9 µM in the experiment with P. chrysogenum (setting [3]); 25 µg/mL in the experiment with A. flavus (Aspergillus flavus); 87.4 µM in the experiment with A. flavus (setting [4]). Also, the MIC is over 50 µg/mL against C. albicans (Candida albicans); over 175 µM in the experiment with C. albicans (setting [5]); over 50 µg/mL in the experiment on S. cerevisiae (Saccharomyces cerevisiae); over 175 µM in the experiment on S. cerevisiae (setting [6]); over 50 µg/mL against B. cereus (Bacillus cereus); over 175 µM in the experiment on B. cereus (setting [7]). Moreover, the MIC in experiment [1] (Staphylococcus aureus) was over 50 µg/mL; in experiment [1] (setting [8]) it was over 175 µM; against P. aeruginosa (Pseudomonas aeruginosa) it was over 50 µg/mL; in the experiment on P. aeruginosa (setting [9]) it was over 175 µM; against E. coli (Escherichia coli), over 50 µg/mL; in the experiment with E. coli (setting [10]), over 175 µM.
Regarding `Cc1cc(F)cc(C2=CCOB2O)c1` [Compound 6k], the MIC in the experiment with T. mentagrophytes (Trichophyton mentagrophytes) was 42 ± 8 µg/mL; in the experiment with T. mentagrophytes (setting [2]), 219 µM; in the experiment with P. chrysogenum (Penicillium chrysogenum), 12.5 µg/mL; in the experiment with P. chrysogenum (setting [3]), 65.1 µM; with A. flavus (Aspergillus flavus), 42 ± 8 µg/mL; in the experiment with A. flavus (setting [4]) it was 219 µM. The MIC is over 50 µg/mL in the experiment with C. albicans (Candida albicans); over 260 µM in the experiment with C. albicans (setting [5]); 12.5 µg/mL against S. cerevisiae (Saccharomyces cerevisiae); 65.1 µM with S. cerevisiae (setting [6]); over 50 µg/mL in the experiment on B. cereus (Bacillus cereus); over 260 µM in the experiment on B. cereus (setting [7]). Besides, the MIC was over 50 µg/mL in [1] (Staphylococcus aureus); over 260 µM in experiment [1] (setting [8]); over 50 µg/mL against P. aeruginosa (Pseudomonas aeruginosa); over 260 µM in the experiment on P. aeruginosa (setting [9]); over 260 µM in the experiment with E. coli (setting [10]).
Regarding `OB1OCC=C1c1cccc(F)c1` [Compound 6c], the MIC against T. mentagrophytes (Trichophyton mentagrophytes) is 50 µg/mL; with T. mentagrophytes (setting [2]), 281 µM; with P. chrysogenum (Penicillium chrysogenum), 25 µg/mL; with P. chrysogenum (setting [3]), 140 µM; with A. flavus (Aspergillus flavus), 50 µg/mL; with A. flavus (setting [4]) it was 281 µM. Besides, the MIC against C. albicans (Candida albicans) is over 50 µg/mL; in the experiment with C. albicans (setting [5]), over 281 µM; against S. cerevisiae (Saccharomyces cerevisiae), 10.4 ± 2 µg/mL; in the experiment on S. cerevisiae (setting [6]) it was 58.4 µM; with B. cereus (Bacillus cereus) it was over 50 µg/mL; in the experiment with B. cereus (setting [7]), over 281 µM. Besides, the MIC was over 50 µg/mL in experiment [1] (Staphylococcus aureus); over 281 µM in experiment [1] (setting [8]); over 50 µg/mL in the experiment on P. aeruginosa (Pseudomonas aeruginosa); over 281 µM in the experiment on P. aeruginosa (setting [9]); over 50 µg/mL in the experiment with E. coli (Escherichia coli); over 281 µM in the experiment on E. coli (setting [10]).
Turning to `OB1OCC=C1c1ccccc1` [Compound 6a], the MIC in the experiment with T. mentagrophytes (Trichophyton mentagrophytes) is over 50 µg/mL; in the experiment with T. mentagrophytes (setting [2]) it was over 313 µM; against P. chrysogenum (Penicillium chrysogenum), 50 µg/mL; in the experiment with P. chrysogenum (setting [3]) it was 313 µM; in the experiment on A. flavus (Aspergillus flavus) it was over 50 µg/mL; in the experiment on A. flavus (setting [4]) it was over 313 µM. The MIC in the experiment with C. albicans (Candida albicans) was over 50 µg/mL; in the experiment on C. albicans (setting [5]) it was over 313 µM; against S. cerevisiae (Saccharomyces cerevisiae) it was 6.25 µg/mL; in the experiment with S. cerevisiae (setting [6]) it was 39.1 µM; in the experiment with B. cereus (Bacillus cereus), over 50 µg/mL; with B. cereus (setting [7]), 313 µM. Further, the MIC in experiment [1] (Staphylococcus aureus) is over 50 µg/mL; in experiment [1] (setting [8]) it was over 313 µM; against P. aeruginosa (Pseudomonas aeruginosa), over 50 µg/mL; with P. aeruginosa (setting [9]), over 313 µM; in the experiment with E. coli (Escherichia coli) it was over 50 µg/mL; in the experiment with E. coli (setting [10]) it was over 313 µM.
On to `C[C@@H]1[C@H](O)[C@@H](C)/C=C/C=C/CC/C=C/C=C/C=C/C=C/C(O[C@H]2O[C@H](C)[C@@H](O)[C@H](N)[C@@H]2O)CC2O[C@](O)(CC(O)C(O)CCC(O)CC(O)CC(O)CC(=O)O[C@H]1C)CC(O)C2C(=O)O` (some centres unmarked) [Nystatin, reference compound], for which, in the experiment with T. mentagrophytes, the “MIC TM” value is 3.13 ± 0 µg/mL (≈ 3.38 µM). Moreover, the MIC in the experiment on T. mentagrophytes (value in parentheses) was 3.38 µM; in the experiment on P. chrysogenum (value in parentheses), 1.68 µM; with A. flavus (value in parentheses), 2.81 µM; in the experiment with C. albicans (value in parentheses), 0.84 µM; in the experiment on S. cerevisiae (value in parentheses), 1.68 µM; in the experiment with B. cereus (value in parentheses), over 54.0 µM. For the same molecule, the MIC (in experiment [1] (value in parentheses); in the experiment on P. aeruginosa (value in parentheses); in the experiment with E. coli (value in parentheses)) was over 54.0 µM in each case. The “MIC PC” value in the experiment with P. chrysogenum is 1.56 ± 0 µg/mL (≈ 1.68 µM). Besides, the “MIC AF” value in the experiment on A. flavus worked out at 2.6 ± 0.5 µg/mL (≈ 2.81 µM). The “MIC CA” value in the experiment on C. albicans is 0.78 ± 0 µg/mL (≈ 0.842 µM). The “MIC SC” value in the experiment on S. cerevisiae was found to be 1.56 ± 0 µg/mL (≈ 1.68 µM). The “MIC BC” value in the experiment on B. cereus is over 50 µg/mL. Moreover, in [1], the “MIC SA” value was over 50 µg/mL. In the experiment on P. aeruginosa, the “MIC PA” value is over 50 µg/mL. Moreover, the “MIC EC” value with E. coli is over 50 µg/mL.
In the case of `COc1ccccc1C1=CCOB1O` [Compound 6p], the MIC with T. mentagrophytes (Trichophyton mentagrophytes) is over 50 µg/mL; in the experiment with T. mentagrophytes (setting [2]), over 263 µM; with P. chrysogenum (Penicillium chrysogenum), over 50 µg/mL; with P. chrysogenum (setting [3]), over 263 µM; in the experiment on A. flavus (Aspergillus flavus), over 50 µg/mL; with A. flavus (setting [4]), over 263 µM. For the same molecule, the MIC with C. albicans (Candida albicans) was over 50 µg/mL; with C. albicans (setting [5]) it was over 263 µM; against S. cerevisiae (Saccharomyces cerevisiae) it was over 50 µg/mL; in the experiment on S. cerevisiae (setting [6]), over 263 µM; against B. cereus (Bacillus cereus) it was over 50 µg/mL; in the experiment on B. cereus (setting [7]), over 263 µM. In addition, the MIC in experiment [1] (Staphylococcus aureus) is over 50 µg/mL; in [1] (setting [8]), over 263 µM; in the experiment with P. aeruginosa (Pseudomonas aeruginosa) it was over 50 µg/mL; with P. aeruginosa (setting [9]), over 263 µM; in the experiment with E. coli (Escherichia coli), over 50 µg/mL; in the experiment with E. coli (setting [10]), over 263 µM.
For the molecule `OB1OCC=C1c1ccccc1Br` [Compound 6j], the MIC in the experiment with T. mentagrophytes (Trichophyton mentagrophytes) was over 50 µg/mL; with T. mentagrophytes (setting [2]), over 210 µM; in the experiment on P. chrysogenum (Penicillium chrysogenum), over 50 µg/mL; with P. chrysogenum (setting [3]) it was over 210 µM; with A. flavus (Aspergillus flavus), over 50 µg/mL; with A. flavus (setting [4]), over 210 µM. Besides, the MIC was over 50 µg/mL with C. albicans (Candida albicans); over 210 µM in the experiment with C. albicans (setting [5]); over 50 µg/mL in the experiment with S. cerevisiae (Saccharomyces cerevisiae); over 210 µM with S. cerevisiae (setting [6]); over 50 µg/mL in the experiment with B. cereus (Bacillus cereus); over 210 µM in the experiment on B. cereus (setting [7]). Also, the MIC in [1] (Staphylococcus aureus) is over 50 µg/mL; in experiment [1] (setting [8]), over 210 µM; against P. aeruginosa (Pseudomonas aeruginosa), over 50 µg/mL; with P. aeruginosa (setting [9]), over 210 µM; against E. coli (Escherichia coli) it was over 50 µg/mL; with E. coli (setting [10]), over 210 µM.
For the molecule `COc1ccc(C2=CCOB2O)cc1` [Compound 6n], the MIC with T. mentagrophytes (Trichophyton mentagrophytes) was over 50 µg/mL; with T. mentagrophytes (setting [2]), over 263 µM; in the experiment with P. chrysogenum (Penicillium chrysogenum), over 50 µg/mL; in the experiment on P. chrysogenum (setting [3]), over 263 µM; in the experiment on A. flavus (Aspergillus flavus) it was over 50 µg/mL; with A. flavus (setting [4]), over 263 µM. Also, the MIC in the experiment on C. albicans (Candida albicans) is over 50 µg/mL; in the experiment with C. albicans (setting [5]), over 263 µM; in the experiment on S. cerevisiae (Saccharomyces cerevisiae), over 50 µg/mL; with S. cerevisiae (setting [6]), over 263 µM; against B. cereus (Bacillus cereus), over 50 µg/mL; in the experiment with B. cereus (setting [7]) it was over 263 µM. Also, the MIC was over 50 µg/mL in [1] (Staphylococcus aureus); over 263 µM in experiment [1] (setting [8]); over 50 µg/mL in the experiment with P. aeruginosa (Pseudomonas aeruginosa); over 263 µM in the experiment on P. aeruginosa (setting [9]); over 50 µg/mL in the experiment with E. coli (Escherichia coli); over 263 µM in the experiment on E. coli (setting [10]).
